From patent US20190255175A1, “ACTIVATION OF TRPA1+ NOCICEPTORS IN THE VAGUS NERVE ATTENUATES SYSTEMIC INFLAMMATION” (THE FEINSTEIN INSTITUTE FOR MEDICAL RESEARCH, priority 2018, published 2019) come the findings set out here.

One test deals with vagus nerve. Put plainly: Cervical vagus nerve electrophysiological recording after IL-1β challenge. It is filed as in vivo, mice. The protocol: FIG. 3. TRPA1 is required for IL-1β induced vagus nerve signaling. Vagus nerve firing rate in 60s-Bins (mean±SEM) starting 5 min prior to IL-1β injection (350 ng/kg) indicated by arrow followed by 5 min post injection time.
Mice were induced with general anesthesia using isoflurane at 2.5% in 100% oxygen at a flow rate of 1 L/min. Once anesthetized, the mouse was moved to a supine position with the isoflurane maintained at 2.0% during surgery. The nerve was then isolated as described in previous publications^10,11,17. The core body temperature was monitored with a rectal probe and maintained around 37° C. with a heating pad and heat lamp. Prior to recording and nerve placement within the cuff, the electrode was submerged briefly in saline solution.
The electrophysiological signals were digitized from the vagus nerve using a Plexon data acquisition system (Omniplex, Plexon Inc., Dallas, Tex.). Recordings were sampled at 40 kHz with a 120 Hz filter and 50 gain. All signals were recorded from a bipolar cuff electrode referenced to the animal ground placed between the right salivary gland and the skin. In experiments with IL-1β challenge, following acquisition of the baseline activity (10 min), 350 ng/kg recombinant human IL-1β (eBioscience, San Diego, Calif.) was administered intraperitoneally; recordings were then continued for 10 min post-injection.
Analysis of raw recordings was done on Spike2 software (version 7, CED). Raw recordings were filtered (using a high pass filter) and smoothed. To identify neural signals, a user-specific adaptive threshold was employed. All signals were identified as neuronal or non-neuronal. Non-neuronal signals, which consisted mainly of cardiac and respiratory components, were manually removed. All recordings with no identifiable neuronal spikes were removed from analyses.
To recognize how knocking out TRPA1 further effects inflammatory signaling, TRPA1 KO and WT mice were injected with either saline or IL-1β ([…]).
To further determine fiber specificity, a TRPV1 cell depletion model was employed by breeding TRPV1-Cre mice with ROSA-DTA mice. […] To identify if TRPV1 itself is necessary for propagation of the signal, recordings were done in a genetic TRPV1 knockout (TRPV1 KO) mouse. […] To determine a molecular target on TRPV1+ neurons mediating afferent IL-1β signaling, the cation channel TRPA1 was identified. TRPA1 is found on a subset of TRPV1+ neurons; approximately 30%. However, TRPA1 co-localized with TRPV1 on 97% of TRPA1+ neurons^26.

Another test concerns nodose ganglion neurons. The experiment in a line: Whole-cell patch clamp recordings of nodose ganglion neurons. It is filed as cell-based, mice. How it is done: Whole-cell patch clamp recordings were made with glass pipettes pulled on a P-97 electrode puller (Sutter Instruments, Novato, Calif.). The resistance of the pipettes was 2-4 MΩ when filled with an intracellular solution (in mM: CsCl 140, HEPES 10, EGTA 5, Mg-ATP 2, NaGTP 0.3, MgCl2 2, Phosphocreatine 10, pH 7.25 adjusted with CsOH). Cells were superfused at a rate of 2 ml/min with an external bath solution containing the following (in mM): 150 NaCl, 2.5 KCl, 10 HEPES, 10 D-glucose, 2 CaCl2, and 1 MgCl2, pH 7.3-7.4. Experiments were performed at room temperature (22-24° C.). Currents from neurons were monitored with an Multiclamp 700B amplifier (Molecular Devices, Union City, Calif.), acquired through Digidata 1550B (Molecular Devices) onto a computer using pClamp 11 software (Molecular Devices). Data were analyzed using Clampfit 11 (Molecular Devices). All chemicals used for electrophysiological recordings were purchased from Sigma. All drugs and solutions were made fresh from drug stock solutions.
(§1) Using patch clamp recordings, IL-1β responses were recorded in nodose ganglion neurons. Application of IL-1β (20 μg/ml) induced calcium influx as indicated by increase of fluorescence in 6 out of 332 (1.8%) sensory nodose ganglion neurons from VGlut2-GCaMP3 mice. Next, whole-cell patch clamp recordings were carried out on the same neurons that responded to IL-1β in calcium influx analysis. When the membrane potential was held at −65 mV, bath application of IL-1β (20 μg/ml) produced slow inward currents in 4 out of 332 (1.2%) nodose neurons. The amplitude of IL-1β induced currents are 108±23 pA (n=4). […] In current-clamp mode, IL-1β reduced action potential threshold from −25±2 mV to −31±3 mV (n=4). […] To further determine the potential interaction of TRPA1 with IL-1β, nodose ganglion neurons from TRPA1 KO mice were examined in a culture system. […] IL1R1 co-localizes with TRPA1 on nodose ganglion neurons, as was determined using immunohistochemical staining.
A general note: Patch clamp records ionic current or voltage across a cell membrane.

Test [1] deals with sensory nodose ganglion neurons. Put plainly: Calcium influx (fluorescence) in sensory nodose ganglion neurons from VGlut2-GCaMP3 mice. It is filed as cell-based. The settings on record: IL-1β 20 μg/ml; 6 out of 332 neurons. How it is done:
as §1

For the substance “IL-1β: interleukin 1β; recombinant human IL-1β for nerve recordings, murine (rmIL-1β) for thermoregulation”, the Vagus nerve activation entry with vagus nerve (TRPA1 KO mice) is recorded as “fails to induce activation of the vagus nerve”; in the test on vagus nerve (wild type mice), “induces activation of the vagus nerve”. The Vagus nerve activity result is “significant increase” in the test with vagus nerve (TRPV1 KO mice) and “No significant enhancement of vagus nerve activity” in the test on vagus nerve (TRPV1 cell depletion model (TRPV1-Cre x ROSA-DTA mice)). Moreover, the “Neurons with slow inward currents” value in the test with nodose ganglion neurons (IL-1β 20 μg/ml bath application, held at −65 mV, 4 out of 332 neurons) amounted to 1.2%. In addition, the “Amplitude of IL-1β induced currents” value in the test on nodose ganglion neurons (IL-1β 20 μg/ml, −65 mV, n=4) was determined as 108±23 pA. Besides, the “Action potential threshold after IL-1β” value in the test on nodose ganglion neurons (current-clamp mode, reduced from −25±2 mV, n=4) is −31±3 mV. For the same substance, in test [1], the “Neurons showing calcium influx (increase of fluorescence)” value stood at 1.8%.
